In EP1611112B1, “ISOXAZOLE COMPOUNDS AS INHIBITORS OF HEAT SHOCK PROTEINS” (Vernalis (Cambridge) Limited, priority 2003, dated 2004) one finds IC50 data, which are given here for 58 molecules.

Structures can show the parent of a compound that is named as a salt.

As usually defined, the IC50 is the concentration that inhibits the measured activity by half.

One test deals with T1, human full-length HSP90 (Homo sapiens, UniProt P08238).
T1 construct: E. coli expressed human full-length HSP90 protein; made in house; host or cells: E. coli
T1 sequence (P08238 whole entry): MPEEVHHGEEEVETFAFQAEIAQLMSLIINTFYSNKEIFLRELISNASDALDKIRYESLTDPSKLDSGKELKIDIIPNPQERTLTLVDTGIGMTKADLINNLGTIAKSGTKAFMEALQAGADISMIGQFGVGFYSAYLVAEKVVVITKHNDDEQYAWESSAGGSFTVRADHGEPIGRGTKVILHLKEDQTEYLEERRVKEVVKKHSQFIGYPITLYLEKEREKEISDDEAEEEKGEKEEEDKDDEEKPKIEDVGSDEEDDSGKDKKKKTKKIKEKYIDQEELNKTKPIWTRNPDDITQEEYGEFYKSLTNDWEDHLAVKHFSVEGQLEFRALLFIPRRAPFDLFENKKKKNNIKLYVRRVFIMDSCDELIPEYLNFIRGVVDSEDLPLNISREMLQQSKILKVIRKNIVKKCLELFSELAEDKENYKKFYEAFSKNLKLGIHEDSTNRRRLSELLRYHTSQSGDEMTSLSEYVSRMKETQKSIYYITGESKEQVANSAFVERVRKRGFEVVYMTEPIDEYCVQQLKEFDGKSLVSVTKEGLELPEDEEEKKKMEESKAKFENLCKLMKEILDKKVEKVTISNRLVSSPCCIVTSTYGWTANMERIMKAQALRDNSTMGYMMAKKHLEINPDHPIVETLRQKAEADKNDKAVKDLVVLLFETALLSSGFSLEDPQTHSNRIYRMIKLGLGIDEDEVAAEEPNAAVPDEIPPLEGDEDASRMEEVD
Briefly: Fluorescence Polarisation Assay (displacement of fluorescein-labelled probe RBT0045864-FAM). Type of test: binding. Particulars: Fluorescence Polarisation Assay, activity range. An excerpt: A Fluorescence Polarization_assay was also employed for the evaluation of some of the compounds of the Examples:
Fluorescence polarization {also known as fluorescence anisotropy} measures the rotation of a fluorescing species in solution, where the larger molecule the more polarized the fluorescence emission.
When the fluorophore is excited with polarized light, the emitted light is also polarized. The molecular size is proportional to the polarization of the fluorescence emission.
Test compound is added to the assay plate, left to equilibrate and the anisotropy measured again. Any change in anisotropy is due to competitive binding of compound to HSP90, thereby releasing probe.
Stored at room temperature. • 3) BSA (bovine serum albumen) 10 mg/ml (New England Biolabs # B9001S) • 4) 20 mM probe in 100 % DMSO stock concentration. Stored in the dark at RT. Working concentration is 200 nM diluted in AR water and stored at 4 °C.
1) Add 100µl 1x buffer to wells 11A and 12A (=FP BLNK) 2) Prepare assay mix - all reagents are kept on ice with a lid on the bucket as the probe is light-sensitive.
This gives 2.5 mM {50x} stock cpd - assuming cpds 20 mM. • 4) Repeat for wells A2 to A10. Control in columns 11 and 12. • 5) Transfer 5 µl from row A to row B- not column 12. Mix well. • 6) Transfer 5 µl from row B to row C. […] Add 2 µl of 100mM standard cpd to wells B12 - H12 {is positive control } • 13)The Z' factor is calculated from zero controls and positive wells.
In general terms: Polarisation of emitted light reports the rotation of a fluorescent probe.
`CCNC(=O)c1noc(-c2cc(Cl)c(O)cc2O)c1-c1ccc(OC)cc1` [Example 25, 5-(5-chloro-2,4-dihydroxyphenyl)-4-(4-methoxy-phenyl)-isoxazole-3-carboxylic acid ethylamide] gave an IC50 below 10 µM.

`CCNC(=O)c1noc(-c2cc(Cl)c(O)cc2O)c1-c1ccc(N2CCNCC2)cc1` [Example 26] registered a half-inhibitory concentration (IC50) below 10 µM.

Molecule `CCNC(=O)c1noc(-c2cc(Cl)c(O)cc2O)c1-c1ccc(F)cc1` [Example 27] returned a half-inhibitory concentration (IC50) below 10 µM.

The molecule `CCNC(=O)c1noc(-c2cc(Cl)c(O)cc2O)c1Br` [Example 27a] displayed an IC50 below 10 µM.

In the case of `Cc1noc(-c2cc(Cl)c(O)cc2O)c1-c1cccc(CN2CCOCC2)c1` [Example 28, 4-Chloro-6-[3-methyl-4-(3-morpholin-4-ylmethyl-phenyl)-isoxazol-5-yl]-benzene-1,3-diol], the IC50 is below 10 µM.

Take `Cc1noc(-c2cc(Cl)c(O)cc2O)c1-c1cccc(CN2CCC(C(N)=O)CC2)c1` [Example 29, 1-{3-[5-(5-Chloro-2,4-dihydroxy-phenyl)-3-methyl-isoxazol-4-yl]-benzyl}-piperidine-4-carboxylic acid amide]: the IC50 was below 10 µM.

`CC(=O)Nc1cccc(-c2c(C)noc2-c2cc(Cl)c(O)cc2O)c1` [Example 30] came in with an IC50 below 10 µM.

Take `CCNC(=O)c1noc(-c2cc(Cl)c(O)cc2O)c1-c1cccc(N2CCN(C)CC2)c1` [Example 31, 5-(5-Chloro-2,4-dihydroxy-phenyl)-4-[3-(4-methyl-piperazin-1-yl)-phenyl]-isoxazole-3-carboxylic acid ethylamide]: the IC50 is below 10 µM.

Molecule `CCNC(=O)c1noc(-c2cc(Cl)c(O)cc2O)c1-c1ccc2ccccc2c1` [Example 32] showed a half-maximal inhibitory concentration (IC50) below 10 µM.

`CCNC(=O)c1noc(-c2cc(Cl)c(O)cc2O)c1-c1ccc2ncccc2c1` [Example 33] returned an IC50 below 10 µM.

For the molecule `CCNC(=O)c1noc(-c2cc(Cl)c(O)cc2O)c1-c1cccnc1` [Example 34], the IC50 is below 10 µM.

Regarding `CCNC(=O)c1noc(-c2cc(Cl)c(O)cc2O)c1-c1cccc2ccccc12` [Example 35], the IC50 was below 10 µM.

Regarding `CCNC(=O)c1noc(-c2cc(Cl)c(O)cc2O)c1-c1ccc(N2CCN(C)CC2)cc1` [Example 36], the IC50 was below 10 µM.

In turn, `CCNC(=O)c1noc(-c2cc(Cl)c(O)cc2O)c1-c1ccc(CNCCS(C)(=O)=O)cc1` [Example 37] came in with an IC50 below 10 µM.

As for `CCNC(=O)c1noc(-c2cc(Cl)c(O)cc2O)c1-c1ccc(CN2CCS(=O)(=O)CC2)cc1` [Example 38], the IC50 was below 10 µM.

Regarding `CCNCc1noc(-c2cc(Cl)c(O)cc2O)c1-c1ccc(OC)cc1` [Example 40], the IC50 was below 10 µM.

`CCNC(=O)c1noc(-c2cc(Cl)c(O)cc2O)c1-c1ccc(CN2CCOCC2)cc1` [Example 41, 5-(5-Chloro-2,4-dihydroxy-phenyl)-4-(4-morpholin-4-ylmethyl-phenyl)-isoxazole-3-carboxylic acid ethylamide]: the IC50 is below 10 µM.

For the molecule `CCNC(=O)c1noc(-c2cc(Cl)c(O)cc2O)c1-c1ccc(CNCc2ccoc2)cc1` [Example 41a], the IC50 was below 10 µM.

`CCNC(=O)c1noc(-c2cc(CC)c(O)cc2O)c1-c1ccc(CN(CC)CC)cc1` [Example 41b] had an IC50 below 10 µM.

`CNC(=O)c1noc(-c2cc(Cl)c(O)cc2O)c1-c1ccc(CN2CCCCC2)cc1` [Example 41c]: the IC50 is below 10 µM.

In turn, `CCNC(=O)c1noc(-c2cc(Cl)c(O)cc2O)c1-c1ccc(F)cc1F` [Example 41e] registered an IC50 below 10 µM.

On to `CCNC(=O)c1noc(-c2cc(Cl)c(O)cc2O)c1-c1ccc(CN2CCOCC2)c(F)c1` [Example 41g], for which the IC50 is below 10 µM.

In the case of `NC(=O)c1noc(-c2cc(Cl)c(O)cc2O)c1-c1ccc(CN2CCCCC2)cc1` [Example 41h], the IC50 was below 10 µM.

Consider `CCNC(=O)c1noc(-c2cc(Cl)c(O)cc2O)c1-c1ccc(CN2CCCCC2)cc1C` [Example 41i], for which the IC50 was below 10 µM.

Molecule `CCNC(=O)c1noc(-c2cc(Cl)c(O)cc2O)c1-c1ccc(CN2CCOCC2)cc1C` [Example 41j] displayed an IC50 below 10 µM.

The molecule `CCNC(=O)c1noc(-c2cc(Cl)c(O)cc2O)c1-c1ccccc1CN1CCOCC1` [Example 41m] registered a concentration for half-maximal inhibition (IC50) below 10 µM.

Molecule `CCNC(=O)c1noc(-c2cc(Cl)c(O)cc2O)c1-c1ccc(CO)cc1` [Example 41n] gave an IC50 below 10 µM.

Molecule `CC(C)NC(=O)c1noc(-c2cc(Cl)c(O)cc2O)c1-c1ccc(CN2CCCCC2)cc1` [Example 41p] showed an IC50 below 10 µM.

`CCNC(=O)c1noc(-c2cc(Cl)c(O)cc2O)c1-c1ccc(OCCN(CC)CC)cc1` [Example 41q] had an IC50 below 10 µM.

In the case of `CCNC(=O)c1noc(-c2cc(Cl)c(O)cc2O)c1-c1ccc(CN2CCCCC2)c2ccccc12` [Example 41r], the IC50 is below 10 µM.

Molecule `CCNC(=O)c1noc(-c2cc(Cl)c(O)cc2O)c1-c1ccccc1CN1CCN(C)CC1` [Example 41s] had an IC50 below 10 µM.

In the case of `CCNC(=O)c1noc(-c2cc(Cl)c(O)cc2O)c1-c1ccc(C(C)N2CCOCC2)cc1` (stereo not shown) [Example 42], the IC50 is below 10 µM.

Regarding `CCNC(=O)c1noc(-c2cc(Cl)c(O)cc2O)c1-c1cccc(C(C)N2CCOCC2)c1` (stereo not shown) [Example 44], the IC50 is below 10 µM.

For the molecule `CCNC(=O)c1noc(-c2cc(Cl)c(O)cc2O)c1-c1cccc(CN2CCOCC2)c1` [Example 45], the IC50 was below 10 µM.

With `CCNC(=O)c1noc(-c2cc(Cl)c(O)cc2O)c1-c1ccc(CN2CCN(C)CC2)cc1` [Example 47], the IC50 is below 10 µM.

On to `CCNC(=O)c1noc(-c2cc(Cl)c(O)cc2O)c1-c1cccc(CN2CCN(C)CC2)c1` [Example 48], for which the IC50 is below 10 µM.

For the molecule `CCNC(=O)c1noc(-c2cc(Cl)c(O)cc2O)c1-c1ccc(CN(CC)CC)cc1` [Example 49], the IC50 is below 10 µM.

Take `CCNC(=O)c1noc(-c2cc(Cl)c(O)cc2O)c1-c1ccc(CN2CCC(CO)CC2)cc1` [Example 50]: the IC50 was below 10 µM.

In turn, `CCNC(=O)c1noc(-c2cc(Cl)c(O)cc2O)c1-c1ccc(CN2CCC(CCO)CC2)cc1` [Example 51] gave an IC50 below 10 µM.

For `CCNC(=O)c1noc(-c2cc(Cl)c(O)cc2O)c1-c1ccc(CN2CCC(O)CC2)cc1` [Example 53], the IC50 is below 10 µM.

As for `CCNC(=O)c1noc(-c2cc(CC)c(O)cc2O)c1-c1ccc(CN2CCOCC2)cc1` [Example 55], the IC50 was below 10 µM.

`CCNC(=O)c1noc(-c2cc(CC)c(O)cc2O)c1-c1ccc(CN2CCCCC2)cc1` [Example 56] gave an IC50 below 10 µM.

`CCNC(=O)c1noc(-c2cc(CC)c(O)cc2O)c1-c1ccc(CN2CCN(C)CC2)cc1` [Example 57] displayed an IC50 below 10 µM.

In the case of `CCNC(=O)c1noc(-c2cc(Cl)c(O)cc2O)c1-c1ccc(CNCc2cccnc2)cc1` [Example 58], the IC50 is below 10 µM.

Consider `CCNC(=O)c1noc(-c2cc(Cl)c(O)cc2O)c1-c1ccc(CN(C)C)cc1` [Example 59], for which the IC50 is below 10 µM.

With `CCNC(=O)c1noc(-c2cc(Cl)c(O)cc2O)c1-c1cccc(CN2CCN(C(C)=O)CC2)c1` [Example 62], the IC50 is below 10 µM.

In the case of `CCNC(=O)c1noc(-c2cc(Cl)c(O)cc2O)c1-c1ccc(F)c(CN2CCN(C(C)=O)CC2)c1` [Example 63], the IC50 was below 10 µM.

The molecule `CCNC(=O)c1noc(-c2cc(Cl)c(O)cc2O)c1-c1ccc(F)c(CN2CCOCC2)c1` [Example 64] had an IC50 below 10 µM.

`CCNC(=O)c1noc(-c2cc(CCc3ccccc3)c(O)cc2O)c1-c1ccc(CN2CCOCC2)cc1` [Example 65, 5-(2,4-dihydroxy-5-phenethyl-phenyl)-4-(4-morpholin-4-ylmethylphenyl)-isoxazole-3-carboxylic acid ethylamide hydrochloride] displayed an IC50 below 10 µM.

As for `CCNC(=O)c1noc(-c2cc(-c3ccccc3)c(O)cc2O)c1-c1ccc(F)cc1` [Example 67], the IC50 was below 10 µM.

`CCNC(=O)c1noc(-c2cc(CCc3ccc(F)cc3)c(O)cc2O)c1-c1ccc(CN2CCCCC2)cc1` [Example 69] had an IC50 below 10 µM.

`CCNC(=O)c1noc(-c2cc(CCc3ccc(F)cc3)c(O)cc2O)c1-c1ccc(CN2CCOCC2)cc1` [Example 70]: the IC50 was below 10 µM.

Take `CCNC(=O)c1noc(-c2cc(-c3ccc(F)cc3)c(O)cc2O)c1-c1ccc(F)cc1` [Example 71]: the IC50 was below 10 µM.

Take `CCNC(=O)c1noc(-c2cc(-c3ccc(F)cc3)c(O)cc2O)c1-c1ccc(CN2CCCCC2)cc1` [Example 72]: the IC50 is below 10 µM.

`CCNC(=O)c1noc(-c2cc(-c3ccc(F)cc3)c(O)cc2O)c1-c1ccc(CN2CCOCC2)cc1` [Example 73] had an IC50 below 10 µM.

`CCNC(=O)c1noc(-c2cc(-c3ccccc3)c(O)cc2O)c1-c1ccc(CN2CCOCC2)cc1` [Example 74] came in with an IC50 below 10 µM.

Consider `CCNC(=O)c1noc(-c2cc(CCc3cccc(F)c3)c(O)cc2O)c1-c1ccc(CN2CCOCC2)cc1` [Example 75], for which the IC50 was below 10 µM.

Still in this test, the particulars now being: Fluorescence Polarisation Assay, key in footnote of the table.
For the molecule `COc1ccc(-c2c(C)noc2-c2cc(C#N)c(O)cc2O)cc1` [Example 12b], the IC50 was below 10 µM.
